The values below come from patent US12410171B2, “Tropomyosin receptor kinase (TRK) degradation compounds and methods of use” (Cullgen (Shanghai), Inc., priority 2020, dated 2025).

One test addresses T1, TPM3-TRKA fusion protein (Homo sapiens, UniProt P04629).
T1 construct: The resulted chimeric proteins always retain the kinase domain of TRK proteins; TPM3 (fusion partner, N-terminal part of tropomyosin alpha-3, P06753); endogenous in cells; host or cells: KM12 colon cancer cells; the other entry of the earlier key: TPM3 (P06753, Tropomyosin alpha-3 chain)
The test can be described thus: TPM3-TRKA fusion protein levels in KM12 cells (Western blot). The format is cell-based. The note with it: read-out: Degradation (at 10 nM). Summed up: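 KM12 colon cancer cells were treated with DMSO or compounds at 0.1–100 nM, 0.4–30 nM or other stated concentrations for 4, 8–16 or 16 h. RIPA lysates were BCA-normalized and resolved by SDS-PAGE. TPM3-TRKA was detected by chemiluminescent Western blot, with bands quantified by densitometry.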
(In general: Immunoblotting shows a protein as a band on a membrane.)

The test system of another test is KM12 cells. The test can be described thus: KM12 cell viability (CellTiter-Glo). The class given is cell-based. The settings on record: Homo sapiens. Summed up: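 KM12 cells seeded at 5000 per well in RPMI 1640 + 10% FBS and exposed 3 days to serial dilutions (11-point 3-fold, 8-point 3-fold from 1000 nM, or 12-point 2-fold). Viability by CellTiter-Glo; IC50 from least-squares nonlinear regression.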
On the technique in general: In ATP-based viability assays light output follows the ATP content of the culture.

Where [1] appears, read: 16 h, TPM3-TRKA degradation in KM12 cells at 10 nM.
[2] abbreviates: 72 h, KM12 cell viability, 11-point 3-fold serial dilution, 3 days, CellTiter-Glo, read-out: IC50.
[3] abbreviates: 16 h, TPM3-TRKA degradation in KM12 cells at 10 nM compound, category of percentage degradation.
The mark [4] stands for this setting: 72 h, KM12 cell viability, CellTiter-Glo, three days treatment, read-out: IC50.

Molecules are shown by their SMILES. Like-named read-outs stand apart in the source and are kept apart here. Bounds are passed on as bounds.

T1 sequence (P04629 with tags, fused parts or gaps): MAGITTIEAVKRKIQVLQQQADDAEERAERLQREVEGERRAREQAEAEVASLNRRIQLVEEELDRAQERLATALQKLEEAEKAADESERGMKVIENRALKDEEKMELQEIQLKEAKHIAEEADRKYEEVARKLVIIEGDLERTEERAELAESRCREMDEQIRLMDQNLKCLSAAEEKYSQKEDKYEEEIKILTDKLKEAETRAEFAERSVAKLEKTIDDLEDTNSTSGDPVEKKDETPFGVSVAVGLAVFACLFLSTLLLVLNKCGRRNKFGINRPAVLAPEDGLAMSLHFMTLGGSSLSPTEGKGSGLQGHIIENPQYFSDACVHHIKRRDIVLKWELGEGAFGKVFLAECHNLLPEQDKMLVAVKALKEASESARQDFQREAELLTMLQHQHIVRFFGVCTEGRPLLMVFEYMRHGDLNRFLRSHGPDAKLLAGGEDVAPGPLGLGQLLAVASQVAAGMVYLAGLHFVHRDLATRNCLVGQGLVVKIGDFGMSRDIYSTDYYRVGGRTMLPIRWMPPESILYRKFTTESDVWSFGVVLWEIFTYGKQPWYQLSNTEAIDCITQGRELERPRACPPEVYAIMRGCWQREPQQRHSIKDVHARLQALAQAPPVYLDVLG

A word on the IC50: it is the midpoint of a concentration-inhibition curve. As for `NC(=O)C1CCN(c2cc(CN3CCN(C(=O)CCOCCOCCOCCNc4cccc5c4C(=O)N(C4CCC(=O)NC4=O)C5=O)CC3)ccc2NC(=O)c2coc(N3CCOCC3)n2)CC1` (stereo not drawn) [CPD-487, N-(2-(4-carbamoylpiperidin-1-yl)-4-((4-(3-(2-(2-(2-((2-(2,6-dioxopiperidin-3-yl)-1,3-dioxoisoindolin-4-yl)amino)ethoxy)ethoxy)ethoxy)propanoyl)piperazin-1-yl)methyl)phenyl)-2-morpholinooxazole-4-carboxamide], the percent degradation of TPM3-TRKA protein at 0.01 µM on TPM3-TRKA fusion protein (setting [1]) was in the range of 50 to 80%. Besides, the IC50 in the test with KM12 cells (setting [2]) was 121 nM.
For the compound `Cc1ncsc1-c1ccc(CNC(=O)[C@@H]2C[C@@H](O)CN2C(=O)[C@@H](NC(=O)CCCCCCCCC(=O)N2CCN(Cc3ccc(NC(=O)c4coc(N5CCOCC5)n4)c(N4CCC(C(N)=O)CC4)c3)CC2)C(C)(C)C)cc1` [CPD-493, N-(2-(4-carbamoylpiperidin-1-yl)-4-((4-(10-(((S)-1-((2S,4R)-4-hydroxy-2-((4-(4-methylthiazol-5-yl)benzyl)carbamoyl)pyrrolidin-1-yl)-3,3-dimethyl-1-oxobutan-2-yl)amino)-10-oxodecanoyl)piperazin-1-yl)methyl)phenyl)-2-morpholinooxazole-4-carboxamide], on TPM3-TRKA fusion protein (setting [1]), the percent degradation of TPM3-TRKA protein at 0.01 µM lay in the range of 50 to 80%. In the test with KM12 cells (setting [2]), the IC50 was determined as 46 nM.
For `COc1ccc(COc2ccc(Cn3c(N)nc4cc(-c5cnn(CC(=O)NCCNc6cccc7c6C(=O)N(C6CCC(=O)NC6=O)C7=O)c5)cnc43)cc2OC)cc1` (stereo not drawn) [CPD-498, 2-(4-(2-amino-3-(3-methoxy-4-((4-methoxybenzyl)oxy)benzyl)-3H-imidazo[4,5-b]pyridin-6-yl)-1H-pyrazol-1-yl)-N-(2-((2-(2,6-dioxopiperidin-3-yl)-1,3-dioxoisoindolin-4-yl)amino)ethyl)acetamide], the percent degradation of TPM3-TRKA protein at 0.01 µM on TPM3-TRKA fusion protein (KM12, 16 h) lay within 50 to 80%. In addition, half-maximal inhibition in the test with KM12 cells (KM12, 72 h) (IC50) required 36.5 nM.
For `COc1ccc(COc2ccc(Cn3c(N)nc4cc(-c5cnn(CC(=O)NCCCCNc6cccc7c6C(=O)N(C6CCC(=O)NC6=O)C7=O)c5)cnc43)cc2OC)cc1` (stereo not drawn) [CPD-499, 2-(4-(2-amino-3-(3-methoxy-4-((4-methoxybenzyl)oxy)benzyl)-3H-imidazo[4,5-b]pyridin-6-yl)-1H-pyrazol-1-yl)-N-(4-((2-(2,6-dioxopiperidin-3-yl)-1,3-dioxoisoindolin-4-yl)amino)butyl)acetamide], the percent degradation of TPM3-TRKA protein at 0.01 µM at TPM3-TRKA fusion protein (setting [1]) was greater than 80%. Moreover, the IC50 with KM12 cells (setting [2]) worked out at 11.3 nM.
Turning to `COc1ccc(COc2ccc(Cn3c(N)nc4cc(-c5cnn(CC(=O)NCCCCCCNc6cccc7c6C(=O)N(C6CCC(=O)NC6=O)C7=O)c5)cnc43)cc2OC)cc1` (stereo not drawn) [CPD-500, 2-(4-(2-amino-3-(3-methoxy-4-((4-methoxybenzyl)oxy)benzyl)-3H-imidazo[4,5-b]pyridin-6-yl)-1H-pyrazol-1-yl)-N-(6-((2-(2,6-dioxopiperidin-3-yl)-1,3-dioxoisoindolin-4-yl)amino)hexyl)acetamide], the percent degradation of TPM3-TRKA protein at 0.01 µM at TPM3-TRKA fusion protein (setting [1]) was greater than 80%. Further, the IC50 in the test with KM12 cells (setting [2]) worked out at 13.2 nM.
Taken in the same sequence, the figures for `COc1ccc(COc2ccc(Cn3c(N)nc4cc(-c5cnn(CC(=O)NCCCCCCCCNc6cccc7c6C(=O)N(C6CCC(=O)NC6=O)C7=O)c5)cnc43)cc2OC)cc1` (stereo not drawn) [CPD-501, 2-(4-(2-amino-3-(3-methoxy-4-((4-methoxybenzyl)oxy)benzyl)-3H-imidazo[4,5-b]pyridin-6-yl)-1H-pyrazol-1-yl)-N-(8-((2-(2,6-dioxopiperidin-3-yl)-1,3-dioxoisoindolin-4-yl)amino)octyl)acetamide] were greater than 80% and 13.2 nM.
Turning to `COc1ccc(COc2ccc(Cn3c(N)nc4cc(-c5cnn(CC(=O)NCCCCCCCC(=O)N[C@H](C(=O)N6C[C@H](O)C[C@H]6C(=O)NCc6ccc(-c7scnc7C)cc6)C(C)(C)C)c5)cnc43)cc2OC)cc1` [CPD-510, (2S,4R)-1-((S)-2-(8-(2-(4-(2-amino-3-(3-methoxy-4-((4-methoxybenzyl)oxy)benzyl)-3H-imidazo[4,5-b]pyridin-6-yl)-1H-pyrazol-1-yl)acetamido)octanamido)-3,3-dimethylbutanoyl)-4-hydroxy-N-(4-(4-methylthiazol-5-yl)benzyl)pyrrolidine-2-carboxamide], at TPM3-TRKA fusion protein (setting [1]), the percent degradation of TPM3-TRKA protein at 0.01 µM was less than 50%. Besides, the IC50 with KM12 cells (setting [2]) is 58.8 nM.
In the same order, the values of `COc1ccc(COc2ccc(Cn3c(N)nc4cc(-c5cnn(CC(=O)NCCCCCCCCCC(=O)N[C@H](C(=O)N6C[C@H](O)C[C@H]6C(=O)NCc6ccc(-c7scnc7C)cc6)C(C)(C)C)c5)cnc43)cc2OC)cc1` [CPD-511, (2S,4R)-1-((S)-2-(10-(2-(4-(2-amino-3-(3-methoxy-4-((4-methoxybenzyl)oxy)benzyl)-3H-imidazo[4,5-b]505yridine-6-yl)-1H-pyrazol-1-yl)acetamido)decanamido)-3,3-dimethylbutanoyl)-4-hydroxy-N-(4-(4-methylthiazol-5-yl)benzyl)pyrrolidine-2-carboxamide] are less than 50% and 85.8 nM.
As to `O=C(CN1CCN(c2cccc(-c3cnc4ccc(N5CCC[C@@H]5c5cccc(F)c5)nn34)n2)CC1)NCCOCCNc1cccc2c1C(=O)N(C1CCC(=O)NC1=O)C2=O` (stereo partly drawn) [TR-106, N-(2-(2-((2-(2,6-dioxopiperidin-3-yl)-1,3-dioxoisoindolin-4-yl)amino)ethoxy)ethyl)-2-(4-(6-(6-((R)-2-(3-fluorophenyl)pyrrolidin-1-yl)imidazo[1,2-b]pyridazin-3-yl)pyridin-2-yl)piperazin-1-yl)acetamide], the percent degradation of TPM3-TRKA protein at 0.01 µM at TPM3-TRKA fusion protein (setting [3]) lay within 50 to 80%. Further, the IC50 in the test with KM12 cells (setting [4]) was found to be 3.8 nM.
Taken in the same sequence, the figures for `O=C1CCC(N2C(=O)c3ccc(NCCCCC(=O)N4CCN(c5cccc(-c6cnc7ccc(N8CCC[C@@H]8c8cccc(F)c8)nn67)n5)CC4)cc3C2=O)C(=O)N1` (stereo partly drawn) [TR-115, 2-(2,6-Dioxopiperidin-3-yl)-5-((5-(4-(6-(6-((R)-2-(3-fluorophenyl)pyrrolidin-1-yl)imidazo[1,2-b]pyridazin-3-yl)pyridin-2-yl)piperazin-1-yl)-5-oxopentyl)amino) isoindoline-1,3-dione] were greater than 80% and 0.9 nM.
In the same order, the values of `O=C(CN1CCN(c2cccc(-c3cnc4ccc(N5CCC[C@@H]5c5cccc(F)c5)nn34)n2)CC1)NCCNc1ccc2c(c1)C(=O)N(C1CCC(=O)NC1=O)C2=O` (stereo partly drawn) [TR-130, N-(2-((2-(2,6-dioxopiperidin-3-yl)-1,3-dioxoisoindolin-5-yl]amino)ethyl)-2-(4˜ (6˜ (6-((R)-2-(3-fluorophenyl)pyrrolidin-1-yl)imidazo[1,2-b]pyridazin-3-yl)pyridin-2-yl)piperazin-1-yl)acetamide] are greater than 80% and 0.9 nM.
For `O=C(CN1CCN(c2cccc(-c3cnc4ccc(N5CCC[C@@H]5c5cccc(F)c5)nn34)n2)CC1)NCCOCCNc1ccc2c(c1)C(=O)N(C1CCC(=O)NC1=O)C2=O` (stereo partly drawn) [TR-135, N-(2-(2-((2-(2,6-dioxopiperidin-3-yl)-1,3-dioxoisoindolin-5-yl)amino)ethoxy)ethyl)-2-(4-(6-(6-((R)-2-(3-fluorophenyl)pyrrolidin-1-yl)imidazo[1,2-b]pyridazin-3-yl)pyridin-2-yl)piperazin-1-yl)acetamide], the percent degradation of TPM3-TRKA protein at 0.01 µM at TPM3-TRKA fusion protein (setting [3]) was greater than 80%. The IC50 in the test with KM12 cells (setting [4]) turned out to be 0.9 nM.
With `O=C1CCC(N2C(=O)c3ccc(NCCOCCOCCOCCOCCC(=O)N4CCN(c5ccc(C(=O)Nc6n[nH]c7ccc(Cc8cc(F)cc(F)c8)cc67)c(NC6CCOCC6)c5)CC4)cc3C2=O)C(=O)N1` (stereo not drawn) [TR-140, N-(5-(3,5-Difluorobenzyl)-1H-indazol-3-yl)-4-(4-(1-((2-(2,6-dioxopiperidin-3-yl)-1,3-dioxoisoindolin-5-yl)amino)-3,6,9,12-tetraoxapentadecan-15-oyl)piperazin-1-yl)-2˜ ((tetrahydro-2H-pyran-4-yl)amino)benzamide], at TPM3-TRKA fusion protein (setting [3]), the percent degradation of TPM3-TRKA protein at 0.01 µM was greater than 80%. In the test on KM12 cells (setting [4]), the IC50 worked out at 1.6 nM.
In the same order, the values of `O=C1CCC(N2Cc3cc(NCC(=O)N4CCN(c5cccc(-c6cnc7ccc(N8CCC[C@@H]8c8cccc(F)c8)nn67)n5)CC4)ccc3C2=O)C(=O)N1` (stereo partly drawn) [TR-190, 3-(5-((2-(4-(6-(6-((R)-2-(3-fluorophenyl)pyrrolidin-1-yl)imidazo[1,2-b]pyridazin-3-yl)pyridin-2-yl)piperazin-1-yl)-2-oxoethyl)amino)-1-oxoisoindolin-2-yl)piperidine-2,6-dione] are greater than 80% and 8.7 nM.
Regarding `O=C1CCC(N2C(=O)c3ccc(CCC(=O)N4CCN(c5cccc(-c6cnc7ccc(N8CCC[C@@H]8c8cccc(F)c8)nn67)n5)CC4)cc3C2=O)C(=O)N1` (stereo partly drawn) [TR-194, 2-(2,6-Dioxopiperidin-3-yl)-5-(3-(4-(6-(6-((R)-2-(3-fluorophenyl)pyrrolidin-1-yl)imidazo[1,2-b]pyridazin-3-yl)pyridin-2-yl)piperazin-1-yl)-3-oxopropyl)isoindoline-1,3-dione], at TPM3-TRKA fusion protein (setting [3]), the percent degradation of TPM3-TRKA protein at 0.01 µM was in the range of 50 to 80%. For the same compound, the IC50 in the test with KM12 cells (setting [4]) stood at 7.4 nM.
